# In PubChem BioAssay (NCI):
#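 Values below derive from 48-hour exposures of cells grown in 96-well plates, with endpoints linearly interpolated between the two concentrations bracketing the appropriate inhibition level. GI50 = concentration required for 50% inhibition of growth. TGI denotes the concentration required for complete inhibition of growth.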
# Tests used:
# Assay in all cases: inhibition of tumour cell growth, NCI panel, 48 h
# LXFL 529 NSCLC = tested on: LXFL 529 NSCLC
# DLD-1 colon = tested on: DLD-1 colon
# DMS 114 small cell lung = tested on: DMS 114 small cell lung
# KM20L2 colon = tested on: KM20L2 colon
# SNB-78 CNS = tested on: SNB-78 CNS
# RXF-631 renal = tested on: RXF-631 renal
# HOP-18 NSCLC = tested on: HOP-18 NSCLC
# NCI/ADR-RES ovarian = tested on: NCI/ADR-RES ovarian
# BT-549 breast = tested on: BT-549 breast
# PC-3 prostate = tested on: PC-3 prostate
# HS 578T breast = tested on: HS 578T breast
SMILES,TGI (LXFL 529 NSCLC) [µM],TGI (DLD-1 colon) [µM],TGI (DMS 114 small cell lung) [µM],TGI (KM20L2 colon) [µM],TGI (SNB-78 CNS) [µM],TGI (RXF-631 renal) [µM],TGI (HOP-18 NSCLC) [µM],other results
O=C(O)c1c[nH]cc1C(=O)O,> 100,> 100,> 100,> 100,> 100,–,–,–
CC(C)[C@@H](COC(C)(C)C)N=CN1CCc2c([nH]c3ccccc23)C1,> 100,> 100,> 100,> 100,> 100,–,–,–
CC(CCCOC(c1ccccc1)(c1ccccc1)c1ccccc1)OC(=O)Nc1cc([N+](=O)[O-])cc([N+](=O)[O-])c1 (configuration not stated),> 100,> 100,> 100,–,–,> 100,–,–
Clc1ccc(CN2COc3c(cc(Cl)c4cccnc34)C2)cc1,2.71,13.6,3.73,27.5,17.9,23.1,16.4,–
N#Cc1ccccc1NC(=O)c1ccccc1,–,> 100,–,> 100,> 100,–,> 100,–
CCO[C@@H]1C2C=CC(C2)[C@H]1[N+](=O)[O-] (some centres not stated),> 100,> 100,> 100,> 100,> 100,–,> 100,–
O=C1CCC2(c3ccccc3)Nc3cc(Cl)ccc3N12 (configuration not stated),> 100,> 100,57.3,> 100,> 100,> 100,–,–
CC(=O)Oc1ccccc1C(=O)C1c2cccc(O)c2C(=O)c2c(O)cccc21,4.03,12.2,1.28,5.57,> 24.8,11.1,4.87,–
COC(=O)[C@]1(C)CCC[C@@]2(C)C1CCC1=C[C@@]3(C(C)C)CC[C@]12OO3 (some centres not stated),74.1,71.5,–,–,> 100,63.8,–,–
COc1ccc2cc3n(c2c1)CCc1cc(OC)c(OC)cc1-3,> 100,> 100,> 100,> 100,> 100,> 100,> 100,–
O=c1cccccc1NCCCCCCCCCNc1cccccc1=O,24.4,> 100,19.1,77.5,82.4,–,–,–
FC(F)(F)c1ccc2nc(Nc3ccc(Cl)c(Cl)c3)c(-c3ccccc3)nc2c1,> 100,–,–,> 100,> 100,–,> 100,–
CN(C)C(=O)C1CCC(=C2C(=O)OC(C)(C)OC2=O)N1C (configuration not stated),> 100,> 100,> 100,> 100,> 100,–,> 100,–
COC(=O)C(=O)C(C(=O)C=C(C)C)C(=O)C(=O)Nc1cccc(C(C)=O)c1 (configuration not stated),> 100,> 100,> 100,> 100,> 100,> 100,> 100,–
COC(=O)C(Cc1nc2ccc(Cl)cc2[nH]c1=O)C(=O)C(=O)Nc1ccccc1[N+](=O)[O-] (configuration not stated),> 100,> 100,> 100,> 100,> 100,> 100,> 100,–
CCOC(=O)N1C2C=C(C)C(C3C(C)C(=O)N31)N(C(=O)c1ccccc1)O2 (configuration not stated),> 100,> 100,> 100,–,> 100,> 100,> 100,–
Cc1cccc(C)c1NC(=O)CCCC(=O)C1CCC/C1=N\NC(=O)C(=O)NN (configuration not stated),> 100,> 100,> 100,> 100,> 100,> 100,> 100,–
CN(C)CCNC(=O)c1ccc(Cl)c2c(Nc3ccc(S(N)(=O)=O)cc3)c3ccccc3nc12,11.2,8.85,4.63,13.4,–,11.6,5.92,–
CC(C)=CC(=O)CC(=O)C(=O)Nc1ccc(Cl)c(Cl)c1,> 100,> 100,> 100,> 100,> 100,–,–,–
CN(C)c1ccc(N=Nc2c([O-])ccc3ccccc23)cc1.[C-]#[O+].[C-]#[O+].[Ir],31.2,47.8,36,59,–,–,37.2,GI50 (NCI/ADR-RES ovarian): 19.3 µM; TGI (NCI/ADR-RES ovarian): 57.7 µM; GI50 (BT-549 breast): 19.6 µM; TGI (BT-549 breast): 56.7 µM; GI50 (LXFL 529 NSCLC): 17.2 µM; GI50 (PC-3 prostate): 17.7 µM; TGI (PC-3 prostate): 34.5 µM; GI50 (DLD-1 colon): 22.5 µM; GI50 (DMS 114 small cell lung): 20.6 µM; GI50 (HOP-18 NSCLC): 17.2 µM; GI50 (KM20L2 colon): 26 µM; GI50 (HS 578T breast): 19.3 µM; TGI (HS 578T breast): 70.9 µM
O=c1[nH]cc(OCC(F)(F)F)c(=O)[nH]1,> 100,> 100,> 100,> 100,> 100,> 100,> 100,–

SMILES,TGI (LXFL 529 NSCLC) [µM],TGI (DLD-1 colon) [µM],TGI (DMS 114 small cell lung) [µM],TGI (KM20L2 colon) [µM],TGI (SNB-78 CNS) [µM],TGI (RXF-631 renal) [µM],TGI (HOP-18 NSCLC) [µM],other results
C/C=C(/CCCCNCCCC)[Si](C)(C)C,29.3,29.8,33.5,21.7,29.7,31.3,–,–
FC(F)(F)C12C34C=CC5(CCC6(C=CC1(CC3)O6)C52C(F)(F)F)O4 (configuration not stated),> 100,–,–,> 100,> 100,–,> 100,–
Cc1cccc(C(C)(C)C)c1NC(=O)C(=O)C(c1cnc2ccccc2n1)[N+](=O)[O-] (configuration not stated),> 100,> 100,> 100,> 100,> 100,–,> 100,–
CCSc1nc(COC(=O)NC)c(COC(=O)NC)n1C,> 54.8,> 100,> 76.2,> 100,> 85.9,> 100,> 100,TGI (NCI/ADR-RES ovarian): > 100 µM; TGI (BT-549 breast): > 100 µM; TGI (PC-3 prostate): > 100 µM; TGI (HS 578T breast): > 100 µM
CC(=O)NC(CCCN(Cc1ccccc1)C(=O)N(CCCl)N=O)C(=O)NCc1ccccc1 (configuration not stated),> 100,> 100,> 100,> 100,> 100,–,> 100,–
COc1cc(Oc2c(O)c(C)c(OC)c(C(C)=O)c2O)c(C(C)=O)c(O)c1C,> 100,> 100,> 100,> 100,> 100,> 100,–,–
O=C1C(=O)N(C2C3CC4CC(C3)CC2C4)C(=O)C(=O)C1c1nc2ccccc2o1 (configuration not stated),> 100,92.9,44.7,> 100,> 100,> 100,> 100,–
C=CCc1ccc(O)c(-c2cc(C3Oc4c(-c5cc(CC=C)ccc5O)cc(O)cc4[C@@H]3CO)ccc2O)c1 (some centres not stated),52.5,38.6,28.1,60.3,> 100,–,> 100,–
CC(=O)C1=C([O-])C(C)OC1=O.CC(=O)C1=C([O-])C(C)OC1=O.[NH-]C1CCCC[C@H]1[NH-].[Pt+4] (configuration not stated),> 100,> 100,–,> 100,–,–,–,GI50 (LXFL 529 NSCLC): 36.2 µM; GI50 (DLD-1 colon): > 100 µM; GI50 (KM20L2 colon): 66.7 µM
CC1CC2(CC[C@@H]1O)OCCO2 (some centres not stated),> 100,> 100,–,–,> 100,> 100,–,–
CCOC(=O)/C(C#N)=C1\N[C@H](C(=O)OCC)CO1,> 100,> 100,–,> 100,> 100,> 100,> 100,–
CCOc1ccc(NC(=O)CC2SC(N)=NC2=O)cc1 (configuration not stated),> 100,> 100,> 100,> 100,> 100,–,–,–
O=C1CC2C(=O)N(Cc3ccccc3)C1C(S(=O)(=O)c1ccccc1)C2S(=O)(=O)c1ccccc1 (configuration not stated),2.61,3.13,2.72,7.4,36.1,28.1,13.8,–
CCC1CN2CCc3cc(OC)c(OC)cc3C2CC1CC1c2cc(OC)c(OC)cc2CCN1C(=O)CNC(=O)OC(C)(C)C (configuration not stated),36.2,36.9,20,90.6,51,> 100,70.7,–
O=C1c2ccccc2C(=O)C1C(c1ccc([N+](=O)[O-])cc1)C1C(=O)c2ccccc2C1=O,> 100,> 100,–,> 100,> 100,29.7,> 100,–
C=C(C)CCC(C)N1CCC(N2CCC(C(=O)NCCc3ccccc3)CC2)CC1 (configuration not stated),–,–,–,–,–,–,–,GI50 (NCI/ADR-RES ovarian): 37.4 µM; TGI (NCI/ADR-RES ovarian): > 100 µM; GI50 (BT-549 breast): 12.1 µM; TGI (BT-549 breast): > 100 µM; GI50 (PC-3 prostate): 79.2 µM; TGI (PC-3 prostate): > 100 µM; GI50 (HS 578T breast): 20.4 µM; TGI (HS 578T breast): 61.8 µM
C=C[C@]1(C)C=C2C(=O)[C@@]3(O)OC[C@@]4(CCCC(C)(C)C43O)C2(O)C(O)C1 (some centres not stated),–,–,–,–,–,–,–,GI50 (NCI/ADR-RES ovarian): 2.33 µM; TGI (NCI/ADR-RES ovarian): 6.62 µM; GI50 (BT-549 breast): 3.47 µM; TGI (BT-549 breast): 13.2 µM; GI50 (PC-3 prostate): 14.9 µM; TGI (PC-3 prostate): 32.7 µM; GI50 (HS 578T breast): 5.13 µM; TGI (HS 578T breast): 22.2 µM
O=C(Cc1ccccc1)N/N=C(\C1=Nc2ccc([N+](=O)[O-])cc2NC1O)C(O)c1ccc([N+](=O)[O-])cc1 (configuration not stated),> 100,> 100,–,> 100,> 100,> 100,> 100,–
Clc1ccc2nc(Oc3ccccc3)cnc2c1,–,–,–,–,–,–,–,GI50 (NCI/ADR-RES ovarian): > 100 µM; TGI (NCI/ADR-RES ovarian): > 100 µM; GI50 (BT-549 breast): > 100 µM; TGI (BT-549 breast): > 100 µM; GI50 (PC-3 prostate): > 100 µM; TGI (PC-3 prostate): > 100 µM; GI50 (HS 578T breast): > 100 µM; TGI (HS 578T breast): > 100 µM
O=C(Nc1cc(Cl)c(Cl)cc1Cl)C(=O)C(C(=O)c1ccc(Cl)c(Cl)c1)C1OC(=O)c2ccccc21 (configuration not stated),22.9,23.4,39.5,33,> 100,–,–,–
CSc1nc(-c2ccccc2)c2c(n1)-c1ccccc1CC2,> 100,> 100,> 100,> 100,–,> 100,> 100,–
